# In US12428388B2, “Nonionic polyether surfactants” (Cepheid, priority 2020, dated 2025):
# What was measured:
# [1] = target: T1, Lipase from porcine pancreas (Sus scrofa, UniProt P00591); assay: Resistance to Lipase Hydrolysis; format: in vitro ADME; details: 1% surfactant in 10 mM tris-HCl (pH 8.0), CaCl2, Lipase from porcine pancreas (Sigma L3126), room temperature
# T1 construct: Lipase from porcine pancreas (Sigma L3126); purchased Sigma L3126; host or cells: porcine pancreas (tissue-derived)
# T1 sequence (P00591 1-450): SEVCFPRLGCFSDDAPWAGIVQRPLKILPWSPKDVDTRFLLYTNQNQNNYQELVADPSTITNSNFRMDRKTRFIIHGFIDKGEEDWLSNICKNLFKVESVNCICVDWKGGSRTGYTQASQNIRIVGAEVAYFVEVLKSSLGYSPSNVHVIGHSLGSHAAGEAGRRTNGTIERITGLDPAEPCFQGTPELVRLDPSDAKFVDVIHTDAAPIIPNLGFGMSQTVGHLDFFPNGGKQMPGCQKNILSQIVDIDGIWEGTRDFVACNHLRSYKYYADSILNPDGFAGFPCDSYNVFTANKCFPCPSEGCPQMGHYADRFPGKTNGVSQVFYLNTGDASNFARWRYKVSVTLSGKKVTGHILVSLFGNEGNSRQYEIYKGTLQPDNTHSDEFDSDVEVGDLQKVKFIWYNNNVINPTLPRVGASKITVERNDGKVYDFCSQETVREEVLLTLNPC
# Description: (§1) Stability of surfactants in the presence of hydrolyzing enzymes was tested according to a simplified literature procedure (Francisco J. Plou, Manuel Ferrer, Oscar M. Nuero, Maria V. Calvo, Miguel Alcalde, Fuensanta Reyes, Antonio Ballesteros. Analysis of Tween 80 as an esterase/lipase substrate for lipolytic activity assay. Biotechnology Techniques, Vol 12, No 3, March 1998, pp. 183-186.)
# B1. Resistance to Lipase Hydrolysis
# The following solutions are prepared in two vials: (A) to 20 mL of 1% Tween 20® in 10 mM tris-HCl (pH 8.0) is added 1 mL of 5% CaCl2) followed by 2 mL of 2 mg/mL solution of Lipase from porcine pancreas (Sigma L3126) in 10 μM tris-HCl (pH 8.0); (B) to 20 mL of 1% Compound 1 in 10 mM tris-HCl (pH 8.0) is added 1 mL of 5% CaCl2) followed by 2 mL of 2 mg/mL solution of Lipase from porcine pancreas (Sigma L3126) in 10 μM tris-HCl (pH 8.0). Both solutions were left at room temperature, and changes were observed visually.
# [2] = system: Esterase from porcine liver; assay: Resistance to Esterase Hydrolysis; format: in vitro ADME; details: 1% surfactant in 10 mM tris-HCl (pH 8.0), CaCl2, Esterase from porcine liver (Sigma E2884), room temperature
# Description: as §1
# B2. Resistance to Esterase Hydrolysis
# The following solutions were prepared in two vials: (A) to 20 mL of 1% Tween 20® in 10 mM tris-HCl (pH 8.0) is added 1 mL of 5% CaCl2) followed by 40 μL of 100 UN/mL solution of Esterase from porcine liver (Sigma E2884) in 10 μM tris-HCl (pH 8.0); (B) to 20 mL of 1% Compound 1 in 10 mM tris-HCl (pH 8.0) is added 1 mL of 5% CaCl2 followed by 40 μL of 100 UN/mL solution of Esterase from porcine liver in 10 μM tris-HCl (pH 8.0). Both solutions were left at room temperature and changes were observed visually.
# [3] = Stability in 2M NaOH (visual observation); format: physicochemical; details: 1% surfactant in 2M NaOH, room temperature
# Description: In the following experiments, the properties of exemplary reduced polysorbates were compared with the starting materials purchased from Sigma: Tween 20® BioXtra, Cat No P7949 and Tween 80® BioXtra, Cat No P8074
# The following solutions are prepared in two vials: (A) 1% Tween 20® in 2M NaOH; (B) 1% Compound 2 in 2M NaOH. Both solutions were left at room temperature and the changes were observed visually.
# Similarly, hydrolytic stability of (A) Tween 80® and (B) Compound 2 were compared.
Substance,"stability to lipase hydrolysis, changes of the solution observed visually [1]","stability to esterase hydrolysis, changes of the solution observed visually [2]","hydrolytic stability in 2M NaOH, changes of the solution observed visually [3]"
polyoxyethylene sorbitan monolaurate [Tween 20®],became cloudy within one hour and became non-transparent the next day,became cloudy within one hour and became non-transparent the next day,became non-transparent within one hour and turned into stiff gel the next day
polyoxyethylene sorbitan monooleate [Tween 80®],–,–,became cloudy within one hour and turned into a stiff gel the next day
